Reference: patent US20020137779A1, “Use of L-2-oxothiazolidine-4-carboxylic acid for the treatment of type 2 diabetes” (Advanced Biochemicals Inc., priority 2001, published 2002)

What was measured:
mice = mice pre-treated with L-2-oxothiazolidine-4-carboxylic acid, acetaminophen 9.5 mmol/kg oral; cited from earlier work
[1] = tested on: pancreatic islets of type 2 diabetes mice; test: morphological examination of pancreatic islets, hematoxylin-eosine and anti-insulin immunohistochemistry (Example 6); format: in vivo, mouse; conditions: 80 mg/kg for four weeks, 120 min after glucose 1 g/kg i.p.
Experimental: Sixth step: Identifying the ability of insulin secretion of the control group and the type 2 diabetes mouse to which 80 mg/kg of L-2-oxothiazolidine-4-carboxylic acid for 4 weeks determined by immunohistochemical staining with anti-insulin antibody.
L-2-oxothiazolidine-4-carboxylic acid or PBS alone was administered to 3 mice in each group, 1 g/kg of glucose was intraperitoneally injected in the fasted state, and they were sacrificed by cervical dislocation after 120 min. of the injection. Immediately, the abdominal region was incised, pancreases were then removed from the mice and fixed more than 12 hours in a cold solution of 4% paraformaldehyde in PBS(pH 7.4, Sigma, USA). Pancreas separated free of intestine and adipose tissue(fatty tissue), rinsed three times with fresh fixing solution, and the fixed tissues were processed routinely for paraffin embedding. The tissue sections were cut off at 5 ^μm interval using microtome(Sandon, Germany) from the paraffin embedding, and adhered to a slide coated with poly-L-lysine(Sigma, USA) for immunohistochemistry.
To remove the paraffin from the slides on which pancreatic tissue was coated, the slides were repeatedly treated with xylene for 5 min., and the tissue sections were rehydrated with a series of 100-70% alcohol and incubated with PBS(pH 7.4) for 5 minutes. […]

For `O=C1NC(C(=O)O)CS1` [OTC, L-2-oxothiazolidine-4-carboxylic acid], the mortality rate (mice) is listed as “less than 10%”, the “densities of the capsule and the β-cells in the capsule, hematoxylin-eosine staining” value [1] is listed as “high” and the “positive response to anti-insulin antibody of pancreatic β-islet cells” value [1] is listed as “distinctly increased”.
